For one compound, IC50 results are on record in article PMC3842230 (Biochemistry, 2013).

By IC50 is commonly meant the concentration needed to halve the response being measured.

This assay relates to Escherichia coli BL21 Δ7 cells. Description: cells. The conditions noted are these: BL21, 5 h, read-out: IC50 (toxic to cell growth). The class given is cell-based.

Consider `COc1cccc2c1C(=O)c1c(O)c3c(c(O)c1C2=O)C[C@@](O)(C(=O)CO)C[C@@H]3O[C@H]1C[C@H](N)[C@H](O)[C@H](C)O1` [Doxorubicin, doxorubicin], for which the half-maximal inhibitory concentration (IC50) was around 1000 nM.
